According to patent US10934274B2, “Quinoline derivatives as TAM RTK inhibitors” (Qurient Co., Ltd., priority 2015, dated 2021):

What was measured:
[1] = tested on: HCC827/ER cells; assay: WST-1 cell viability assay in erlotinib-resistant cells; conditions: compound combined with Erlotinib at constant 1:1 ratio, 3 days, FBS 1%
Procedure: The killed cells were discarded and the remaining cells were cultured in a drug-free medium up to 80% confluence. Subsequently, cells were continuously exposed to increasing drug doses of up to 10 μM over a period of 8 months.
HCC827/ER cells were seeded in a 96-well plate with their respective media containing 10% FBS at 5000 cells/well. After seeding, the HCC827/ER cells were incubated for approximately 24 hours. […] The viability of the HCC827/ER cells was determined by adding WST-1 reagent according to Manufacturer's instructions (DoGenbio co., Ltd) and incubating for four hours. The plates were then read using an absorbance of 440 nm on Tecan Microplate reader (Infinite M200 pro, TECAN). The HCC827/ER cells' viability were calculated relative to vehicle (DMSO) control wells.

[2] = tested on: Axl phosphorylation in transiently transfected HEK293T cells; assay: Cellular Axl phosphorylation assay; type: cell-based; conditions: Homo sapiens, HEK-293T; HEK293T cells transfected with Axl, 1 hour compound treatment, Phospho-Axl vs Total-Axl
Source text: Cell AXL Inhibition Assay Principle
The assay is based on the measurement of the relative amounts of Total-Axl and Phosphorylated-Axl in whole cell lysates of transiently transfected HEK293T cells. This assay is based on application of the Mesoscale western blot and subsequent electro-chemiluminescence detection. Overexpression of Axl-RTK (Receptor tyrosine kinase) by transfection leads to an increase in Axl-trans-autophosphorylation events. Upon compound treatment, the correlation of the measured values of Phosphorylated-Axl and Total Axl indicate the potential of the tested compound to inhibit Axl-phosphorylation at the given compound concentration.
Cell AXL Inhibition Assay Protocol
HEK293T cells (2.5×10^4/well) were plated in a 96 well plate and cells were transfected with pcDNA_DEST_40 Axl or pcDNA_DEST_40 by Superfact reagent (Qiagen. Co. Ltd.). After overnight, the transfection reagent of each well was removed from cells and replaced by fresh prewarmed medium. On the following day, cells were treated with the respective test compound which was diluted by the same method, as in the Axl binding assay using DMSO, for 1 hour
After incubation with the test compounds, cells in the well of the plate were lysed using Tris lysis buffer. The lysate was transferred to two plates (total-Axl and phosphor-Axl) Mesoscale high bind plates and incubated for two hours at room temperature. Afterwards the lysates were removed from the plates and the plates were blocked using Blocking buffer. Subsequently Total-Axl antibody (H-124, Santa Cruz) was transferred to one Mesoscale high bind plate, and Phospho-Axl antibody (AF2228, R&D) to the other plate. After 1 h incubation, Sulpho-Tag antibody (goat anti-rabbit, Mesoscale) was added and again incubated for 1 hour. For the measurement, 2×MSD read buffer was added to each well and the plates were analyzed with a Mesoscale Sector Imager 2400. IC50 (half the maximal inhibitory concentration) was determined relative to between the vehicle (DMSO) control group and minimum control group as transfection of the control vector (pcDNA_DEST_40).
The results after this assay are shown in table 3 for selected compounds.

[3] = biological target: T1, TYRO3 (Homo sapiens, UniProt Q06418); assay: LanthaScreen Eu kinase binding assay, TYRO3; conditions: Tracer 236
T1 construct: purchased Life Technologies
T1 sequence (Q06418 41-890): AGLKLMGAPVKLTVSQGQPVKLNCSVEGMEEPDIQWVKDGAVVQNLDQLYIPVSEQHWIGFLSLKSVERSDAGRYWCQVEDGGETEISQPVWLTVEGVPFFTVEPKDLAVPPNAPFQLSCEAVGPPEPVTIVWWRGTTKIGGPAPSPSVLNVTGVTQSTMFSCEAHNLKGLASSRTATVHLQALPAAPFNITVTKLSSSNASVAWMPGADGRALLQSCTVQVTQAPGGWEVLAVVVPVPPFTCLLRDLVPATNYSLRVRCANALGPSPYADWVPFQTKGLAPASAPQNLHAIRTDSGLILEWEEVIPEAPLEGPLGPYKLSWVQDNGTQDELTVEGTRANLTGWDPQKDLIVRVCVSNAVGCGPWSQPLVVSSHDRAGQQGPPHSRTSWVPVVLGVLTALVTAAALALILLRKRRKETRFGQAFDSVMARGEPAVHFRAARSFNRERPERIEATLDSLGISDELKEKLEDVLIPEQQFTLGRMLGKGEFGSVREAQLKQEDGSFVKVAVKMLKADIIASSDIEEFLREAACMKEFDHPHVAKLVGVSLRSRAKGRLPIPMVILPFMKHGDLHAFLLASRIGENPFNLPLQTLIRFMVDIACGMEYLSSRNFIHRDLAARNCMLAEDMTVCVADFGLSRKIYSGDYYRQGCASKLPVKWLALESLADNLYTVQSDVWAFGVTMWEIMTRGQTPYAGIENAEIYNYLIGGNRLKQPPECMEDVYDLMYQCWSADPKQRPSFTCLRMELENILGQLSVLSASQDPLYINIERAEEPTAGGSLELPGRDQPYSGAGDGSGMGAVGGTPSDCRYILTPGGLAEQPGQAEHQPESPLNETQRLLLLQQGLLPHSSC

Structure (SMILES)	Combination effect of compound and erlotinib on inhibition activity in Erlotinib-resistant cell-line [1]	IC50 [2] [nM]	Kd [3] [nM]
CCOc1cn(-c2c(C)ccnc2C)nc1C(=O)Nc1ccc(Oc2ccnc3cc(OC)c(OC)cc23)cn1 [Compound 132]	synergistic effect	< 100	< 100
CCOc1cn(-c2cnccc2C(C)(C)O)nc1C(=O)Nc1ccc(Oc2ccnc3cc(OC)c(OC)cc23)cn1 [Compound 184]		< 100	< 100
CCOc1cn(-c2cnc(N)nc2)nc1C(=O)Nc1ccc(Oc2ccnc3cc(OC)c(OC)cc23)cn1 [Compound 10]		< 100	< 100
CCOc1cn(-c2cncnc2C)nc1C(=O)Nc1ccc(Oc2ccnc3cc(OC)c(OC)cc23)cn1 [Compound 149]	synergistic effect	< 100	< 100
CCOc1cn(-c2cnccc2Cl)nc1C(=O)Nc1ccc(Oc2ccnc3cc(OC)c(OC)cc23)cc1F [Compound 194]		< 100	< 100
CCOc1cn(-c2cnccc2CO)nc1C(=O)Nc1ccc(Oc2ccnc3cc(OC)c(OC)cc23)cc1F [Compound 209]		< 100	< 100
CCOc1cn(-c2ccc(F)cc2F)nc1C(=O)Nc1ccc(Oc2ccnc3cc(OC)c(OC)cc23)cn1 [Compound 107]		< 100	< 100
CCOc1cn(-c2cccnc2)nc1C(=O)Nc1ccc(Oc2ccnc3cc(OC(C)C)c(OC)cc23)cn1 [Compound 208]		< 100	100 to 1000
CCOc1cn(-c2ccc(Cl)c(CN(C)C)c2)nc1C(=O)Nc1ccc(Oc2ccnc3cc(OC)c(OC)cc23)cn1 [Compound 126]		< 100	≥ 1000
CCOc1cn(-c2ccc(C(C)C)cc2)nc1C(=O)Nc1ccc(Oc2ccnc3cc(OC)c(OC)cc23)cn1 [Compound 116]		< 100	≥ 1000
CCOc1cn(-c2ccc(Cl)cc2C(F)(F)F)nc1C(=O)Nc1ccc(Oc2ccnc3cc(OC)c(OC)cc23)cn1 [Compound 101]		< 100	100 to 1000
CCOc1cn(-c2cnccc2C(C)(O)CO)nc1C(=O)Nc1ccc(Oc2ccnc3cc(OC)c(OC)cc23)cn1 (stereo not shown) [Compound 205]		< 100	< 100
CCOc1cn(-c2nccnc2Cl)nc1C(=O)Nc1ccc(Oc2ccnc3cc(OC)c(OC)cc23)cn1 [Compound 177]		< 100	< 100
CCOc1cn(-c2ccc(F)cc2C(F)(F)F)nc1C(=O)Nc1ccc(Oc2ccnc3cc(OC)c(OC)cc23)cn1 [Compound 104]		< 100	< 100
CCOc1cnn(-c2cncs2)c1C(=O)Nc1ccc(Oc2ccnc3cc(OC)c(OC)cc23)cn1 [Compound 16]		100 to 1000	100 to 1000
CCOc1cn(-c2ccc(OC(F)(F)F)cc2Cl)nc1C(=O)Nc1ccc(Oc2ccnc3cc(OC)c(OC)cc23)cc1F [Compound 192]		< 100	100 to 1000
CCOc1cn(-c2cnccc2C(F)(F)F)nc1C(=O)Nc1ccc(Oc2ccnc3cc(OC)c(OC)cc23)cc1F [Compound 196]		< 100	< 100
CCOc1cn(-c2c(C)ccnc2C)nc1C(=O)Nc1ccc(Oc2ccnc3cc(OC)c(OC)cc23)cc1F [Compound 191]		< 100	< 100
CCOc1cn(-c2ccnc(O)c2)nc1C(=O)Nc1ccc(Oc2ccnc3cc(OC)c(OC)cc23)cn1 [Compound 7]		≥ 1000	≥ 1000

Structure (SMILES)	Combination effect of compound and erlotinib on inhibition activity in Erlotinib-resistant cell-line [1]	IC50 [2] [nM]	Kd [3] [nM]
CCOc1cn(-c2cnccc2C)nc1C(=O)Nc1ccc(Oc2ccnc3cc(OC)c(OC)cc23)nn1 [Compound 210]		< 100	100 to 1000
CCOc1cn(-c2cnccc2Cl)nc1C(=O)Nc1ccc(Oc2ccnc3cc(OC)c(OC)cc23)c(F)c1 [Compound 193]		< 100	< 100
CCOc1cn(-c2cncs2)nc1C(=O)Nc1ccc(Oc2ccnc3cc(OC)c(OC)cc23)cn1 [Compound 14]		< 100	< 100
CCOc1cn(-c2cnc(CO)nc2)nc1C(=O)Nc1ccc(Oc2ccnc3cc(OC)c(OC)cc23)cn1 [Compound 96]		< 100	≥ 1000
CCOc1cn(-c2cnc(Cl)cn2)nc1C(=O)Nc1ccc(Oc2ccnc3cc(OC)c(OC)cc23)cn1 [Compound 169]		< 100	≥ 1000
CCOc1cn(-c2cnccc2Cl)nc1C(=O)Nc1ccc(Oc2ccnc3cc(OC)c(OC)cc23)cn1 [Compound 183]		< 100	< 100
CCOc1cn(-c2c(C)cc(C)cc2C)nc1C(=O)Nc1ccc(Oc2ccnc3cc(OC)c(OC)cc23)cn1 [Compound 117]		< 100	100 to 1000
CCOc1cn(-c2ccc(N)nc2)nc1C(=O)Nc1ccc(Oc2ccnc3cc(OC)c(OC)cc23)cn1 [Compound 6]		< 100	< 100
CCOc1cn(-c2cnccc2CO)nc1C(=O)Nc1ccc(Oc2ccnc3cc(OC)c(OC)cc23)cn1 [Compound 179]		< 100	< 100
CCOc1cn(-c2cnc(OC)nc2)nc1C(=O)Nc1ccc(Oc2ccnc3cc(OC)c(OC)cc23)cn1 [Compound 148]		< 100	≥ 1000
CCOc1cn(-c2ccc(Cl)c(C(=O)N(C)C)c2)nc1C(=O)Nc1ccc(Oc2ccnc3cc(OC)c(OC)cc23)cn1 [Compound 129]		< 100	≥ 1000
CCOc1cn(-c2ccc(F)cc2C)nc1C(=O)Nc1ccc(Oc2ccnc3cc(OC)c(OC)cc23)nn1 [Compound 97]		< 100	≥ 1000
CCOc1cn(-c2nccnc2Cl)nc1C(=O)Nc1ccc(Oc2ccnc3cc(OC)c(OC)cc23)cc1F [Compound 190]		< 100	< 100
CCOc1cn(-c2cccnc2)nc1C(=O)Nc1ccc(Oc2ccnc3cc(OC(C)CC)c(OC)cc23)cn1 (stereo not shown) [Compound 206]		< 100	≥ 1000
CCOc1cn(-c2cncnc2C2CC2)nc1C(=O)Nc1ccc(Oc2ccnc3cc(OC)c(OC)cc23)cn1 [Compound 167]		< 100	< 100
CCOc1cn(-c2cnccc2CCO)nc1C(=O)Nc1ccc(Oc2ccnc3cc(OC)c(OC)cc23)cn1 [Compound 181]		< 100	< 100
CCOc1cn(-c2nccnc2C(C)(C)O)nc1C(=O)Nc1ccc(Oc2ccnc3cc(OC)c(OC)cc23)cn1 [Compound 200]		< 100	< 100
CCOc1cn(-c2cnccc2CO)nc1C(=O)Nc1ccc(Oc2ccnc3cc(OC)c(OC)cc23)c(F)c1 [Compound 207]		< 100	< 100
